Measurements: ChEMBL document CHEMBL1149423, “Novel phenylamino acetamide derivatives as potent and selective kappa opioid receptor agonists” (Bioorg Med Chem Lett, 2006)

Tests used:
[1] = target: T1, Kappa-type opioid receptor (Homo sapiens, UniProt P41145); test: Agonist activity at kappa opioid receptor in a [35S]GTP-gamma-S functional assay
[2] = target: T1, Kappa-type opioid receptor; test: Binding affinity to kappa opioid receptor
[3] = target: Opioid receptors; mu & kappa (Homo sapiens) (UniProt P41145+P35372); test: Selectivity for kappa opioid receptor over mu opioid receptor; format: protein assay
[4] = target: Opioid receptors; delta & kappa (Homo sapiens) (UniProt P41145+P41143); test: Selectivity for kappa opioid receptor over delta opioid receptor; format: protein assay
Cytochrome P450 2D6 = Cytochrome P450 2D6 (Homo sapiens, UniProt P10635); test: Inhibitory activity against CYP2D6; format: ADME
Mu-type opioid receptor = Mu-type opioid receptor (Homo sapiens, UniProt P35372); test: Binding affinity to mu opioid receptor
Mus musculus = test: Inhibition of acetic acid-induced writhing in mice after sc administration; format: functional
Rattus norvegicus = species: Rattus norvegicus; test: Antinociception in rat at 300 ug given intrapaw in late phase formalin-induced flinching assay; format: functional

Chain of Opioid receptors; delta & kappa (Homo sapiens) (P41143 whole entry, looked up): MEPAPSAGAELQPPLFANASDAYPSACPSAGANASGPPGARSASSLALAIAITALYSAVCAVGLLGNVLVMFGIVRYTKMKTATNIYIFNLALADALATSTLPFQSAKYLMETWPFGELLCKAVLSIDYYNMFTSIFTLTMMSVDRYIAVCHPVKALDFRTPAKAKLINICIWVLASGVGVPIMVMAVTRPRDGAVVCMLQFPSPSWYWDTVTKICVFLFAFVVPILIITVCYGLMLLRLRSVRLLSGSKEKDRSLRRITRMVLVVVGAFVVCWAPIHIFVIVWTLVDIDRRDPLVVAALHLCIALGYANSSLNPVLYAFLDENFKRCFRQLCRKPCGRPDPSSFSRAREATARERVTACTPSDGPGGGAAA
Chain of Opioid receptors; delta & kappa (Homo sapiens) (P41145 whole entry, looked up): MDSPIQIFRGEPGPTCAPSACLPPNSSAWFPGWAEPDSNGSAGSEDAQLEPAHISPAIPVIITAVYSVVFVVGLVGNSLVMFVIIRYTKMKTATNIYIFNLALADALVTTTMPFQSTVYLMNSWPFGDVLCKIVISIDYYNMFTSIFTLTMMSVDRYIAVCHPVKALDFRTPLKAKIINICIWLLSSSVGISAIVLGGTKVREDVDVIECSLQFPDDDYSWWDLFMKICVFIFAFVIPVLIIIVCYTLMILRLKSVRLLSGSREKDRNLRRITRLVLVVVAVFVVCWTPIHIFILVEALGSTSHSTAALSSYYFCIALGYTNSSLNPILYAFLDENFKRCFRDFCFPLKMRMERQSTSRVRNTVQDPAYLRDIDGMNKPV
Chain of Cytochrome P450 2D6 (P10635 whole entry): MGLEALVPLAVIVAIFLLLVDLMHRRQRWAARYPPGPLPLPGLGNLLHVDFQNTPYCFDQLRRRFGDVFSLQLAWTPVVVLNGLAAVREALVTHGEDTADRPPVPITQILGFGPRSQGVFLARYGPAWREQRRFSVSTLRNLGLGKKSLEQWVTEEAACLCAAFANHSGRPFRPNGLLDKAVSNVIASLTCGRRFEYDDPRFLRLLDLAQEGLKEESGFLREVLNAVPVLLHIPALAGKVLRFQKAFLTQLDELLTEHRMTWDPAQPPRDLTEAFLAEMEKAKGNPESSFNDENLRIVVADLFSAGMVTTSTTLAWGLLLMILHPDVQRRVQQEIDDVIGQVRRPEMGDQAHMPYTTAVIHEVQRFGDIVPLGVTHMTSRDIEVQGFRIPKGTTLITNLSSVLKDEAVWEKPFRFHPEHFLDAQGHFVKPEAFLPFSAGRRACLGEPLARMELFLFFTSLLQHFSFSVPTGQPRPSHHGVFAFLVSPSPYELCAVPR
T1 sequence (P41145 whole entry): as the sequence (P41145 whole entry, looked up) above
Chain of Opioid receptors; mu & kappa (Homo sapiens) (P35372 whole entry, looked up): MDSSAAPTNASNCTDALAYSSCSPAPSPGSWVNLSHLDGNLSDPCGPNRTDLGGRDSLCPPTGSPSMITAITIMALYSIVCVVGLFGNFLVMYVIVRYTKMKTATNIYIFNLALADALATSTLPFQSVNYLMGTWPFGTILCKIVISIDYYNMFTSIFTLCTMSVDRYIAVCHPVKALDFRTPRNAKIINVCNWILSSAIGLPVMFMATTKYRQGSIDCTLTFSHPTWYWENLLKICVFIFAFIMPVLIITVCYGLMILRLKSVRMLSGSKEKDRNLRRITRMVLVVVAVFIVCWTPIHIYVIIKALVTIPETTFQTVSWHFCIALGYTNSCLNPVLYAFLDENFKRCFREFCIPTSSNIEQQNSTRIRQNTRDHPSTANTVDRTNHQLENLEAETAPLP
Chain of Opioid receptors; mu & kappa (Homo sapiens) (P41145 whole entry, looked up): as the sequence (P41145 whole entry, looked up) above
Chain of Mu-type opioid receptor (P35372 whole entry): as the sequence (P35372 whole entry, looked up) above

Structure (SMILES)	EC50 [1] [nM]	Ki [2] [nM]	Ratio [3]	Ratio [4]	IC50 (Cytochrome P450 2D6) [nM]	Ki (Mu-type opioid receptor) [nM]	ED50 (Mus musculus) [mg/kg]	Activity (Rattus norvegicus) [%]
CN(CC(=O)N(C)[C@H](CN1CC[C@H](O)C1)c1ccccc1)c1ccccc1	0.23	0.32	1660	169	530	–	–	–
CC(=O)N(CC(=O)N(C)[C@H](CN1CC[C@H](O)C1)c1ccccc1)c1ccccc1	7.4	3.8	> 1320	342	300	> 5000	–	–
CCCS(=O)(=O)Nc1ccc(NCC(=O)N(C)[C@H](CN2CC[C@H](O)C2)c2ccccc2)cc1	8.3	1.5	1000	87	9000	–	–	–
CN(C(=O)CNc1ccc(CNS(C)(=O)=O)cc1)[C@H](CN1CC[C@H](O)C1)c1ccccc1	24	16	81	119	8000	–	–	–
CN(C(=O)CNc1ccc(C(F)(F)F)cc1)[C@H](CN1CC[C@H](O)C1)c1ccccc1	0.8	0.39	385	256	190	–	–	–
CN(CC(=O)N(C)[C@H](CN1CC[C@H](O)C1)c1ccccc1)c1ccc(C#N)cc1	2.3	1	250	180	670	–	–	–
CN(C(=O)CNc1cccc(CNS(C)(=O)=O)c1)[C@H](CN1CC[C@H](O)C1)c1ccccc1	4.8	3.9	38	38	8700	–	–	–
CN(C(=O)CNc1ccc([N+](=O)[O-])cc1)[C@H](CN1CC[C@H](O)C1)c1ccccc1	0.23	0.21	905	119	3400	–	–	–
CN(C(=O)CNc1ccc(C#N)cc1)[C@H](CN1CC[C@H](O)C1)c1ccccc1	0.49	0.66	833	409	2500	–	–	–
CN(C(=O)CNc1ccc(Cl)c(Cl)c1)[C@H](CN1CC[C@H](O)C1)c1ccccc1	0.27	0.11	427	91	760	–	–	–
CN(C(=O)CNc1cccc(C#N)c1)[C@H](CN1CC[C@H](O)C1)c1ccccc1	0.58	0.5	1140	66	3000	–	–	–
CN(C(=O)CNc1ccccc1C#N)[C@H](CN1CC[C@H](O)C1)c1ccccc1	0.42	0.39	667	49	510	–	–	–
CN(C(=O)CNc1ccccc1)[C@H](CN1CC[C@H](O)C1)c1ccccc1	–	–	5880	512	4100	–	0.017	96.2
CN(C(=O)CNc1ccc(NS(C)(=O)=O)cc1)[C@H](CN1CC[C@H](O)C1)c1ccccc1	14	5.7	> 877	47	–	> 5000	–	–
CN(C(=O)CNc1ccccc1CNS(C)(=O)=O)[C@H](CN1CC[C@H](O)C1)c1ccccc1	0.52	0.78	85	10	1500	–	–	–
